Data as given in patent US20030087887A1, “Novel fusidic acid derivatives” (priority 2001, published 2003).
Values after ≈ are worked out from the molar mass of the structure shown. Where two headings read alike, the source gives them in different places.

Columns and labels:
Format in all cases: cell-based
[1] = system: E. coli HA165; experiment: MIC, agar diffusion, E. coli HA165; conditions: Escherichia coli, read-out: in vitro activities MIC
Text: (§1) In vitro investigations have shown a relatively high potency of compounds of the invention against all bacteria including gram-positive and gram-negative strains (Staphylococci, Streptococci, Corynebacteriae, Mycobacteriae, Proteus, Propionibacterium, Pseudomonas, Neisseriae, E. coli) and fungal strains (Candida and Aspergillus). […] In addition, the studies of post-antibiotic effects point towards a strong bactericidal effect of the compounds of the invention. […] The potency of new polyaminated fusidic acid analogues is estimated by comparing the inhibition of growth of different microorganisms produced by known concentrations of the analogue to be examined and a reference compound such as fusidic acid. The microbiological assay set up is in agreement with the European Pharmacopoeia 3rd edition (1997). It is an agar diffusion method where the same volume of the tested solution is added to cavities in agar. The inhibition zones are function of the concentration of the fusidic acid analogue used. All assays are run with fusidic acid as reference substance.

[2] = system: S. aureus CJ234F; experiment: MIC, agar diffusion, S. aureus CJ234F; conditions: Staphylococcus aureus; S. aureus CJ234F (MRSA, Fus. resistant); read-out: in vitro activities MIC
Text: as §1

[3] = system: S. aureus CJ247; experiment: MIC, agar diffusion, S. aureus CJ247; conditions: Staphylococcus aureus, read-out: in vitro activities MIC
Text: as §1

[4] = system: Corynebacterium xerosis FF; experiment: MIC, agar diffusion, Corynebacterium xerosis FF; conditions: read-out: in vitro activities MIC
Text: as §1

[5] = system: Asbergillus niger ZM35; experiment: MIC, agar diffusion, Asbergillus niger ZM35; conditions: Aspergillus niger, read-out: in vitro activities MIC
Text: as §1

[6] = system: Pseudomonas aeruginosa BA17; experiment: MIC, agar diffusion, Pseudomonas aeruginosa BA17; conditions: read-out: in vitro activities MIC
Text: as §1

[7] = system: Streptococcus pyogenes EC88; experiment: MIC, agar diffusion, Streptococcus pyogenes EC88; conditions: read-out: in vitro activities MIC
Text: as §1

[8] = system: S. epidermis CK5; experiment: MIC, agar diffusion, S. epidermis CK5; conditions: Staphylococcus epidermidis, read-out: in vitro activities MIC
Text: as §1

[9] = system: S. aureus CJ200; experiment: MIC, agar diffusion, S. aureus CJ200; conditions: Staphylococcus aureus, read-out: in vitro activities MIC
Text: as §1

[10] = system: S. aureus N6; experiment: MIC, agar diffusion, S. aureus N6; conditions: Staphylococcus aureus; S. aureus N6 (Fus. resistant); read-out: in vitro activities MIC
Text: as §1

[11] = system: Saccaromyces cervisiae ZZ7; experiment: MIC, agar diffusion, Saccaromyces cervisiae ZZ7; conditions: Saccharomyces cerevisiae, read-out: in vitro activities MIC
Text: as §1

[12] = system: S. aureus CJ234R; experiment: MIC, agar diffusion, S. aureus CJ234R; conditions: Staphylococcus aureus, read-out: in vitro activities MIC
Text: as §1

[13] = system: Propionibacterium acnes FN33; experiment: MIC, agar diffusion, Propionibacterium acnes FN33; conditions: Cutibacterium acnes, read-out: in vitro activities MIC
Text: as §1

[14] = system: Candida albicans ZA; experiment: MIC, agar diffusion, Candida albicans ZA; conditions: read-out: in vitro activities MIC
Text: as §1

[15] = system: Streptococcus faecium EI19; experiment: MIC, agar diffusion, Streptococcus faecium EI19; conditions: Enterococcus faecium; Streptococcus faecium EI19 (Penicillin resistant); read-out: in vitro activities MIC
Text: as §1

Row | SMILES | MIC [1] | MIC [2] | MIC [3] | MIC [4] | MIC [5] | MIC [6] | MIC [7] | MIC [8] | MIC [9] | MIC [10] | MIC [11] | MIC ([12]; MRSA) | MIC [13] | MIC [14] | MIC [15] | MIC ([12]; S. aureus CJ234R (MRSA, Rifampicin resistant))
1 | CC(C)CCCC(C(=O)NCCCNCCCNCCCN)[C@@H]1CC[C@@]2(C)C1C[C@@H](O)C1[C@@]3(C)CC[C@@H](O)[C@@H](C)C3CC[C@@]12C (stereo partly drawn) [Compound 145, 21-N-{[3′-({3′-[(3′-aminopropyl)amino]propyl}amino)propyl]}-16-desacetoxy-17R,20S,24,25-tetrahydrofusid-21-amide] | 4 µg/mL (≈ 6.32 µM) | 1 µg/mL (≈ 1.58 µM) | 1 µg/mL (≈ 1.58 µM) | 1 µg/mL (≈ 1.58 µM) | > 125 µg/mL | 4 µg/mL (≈ 6.32 µM) | 4 µg/mL (≈ 6.32 µM) | 1 µg/mL (≈ 1.58 µM) | 1 µg/mL (≈ 1.58 µM) | 1 µg/mL (≈ 1.58 µM) | 4 µg/mL (≈ 6.32 µM) | 4 µg/mL (≈ 6.32 µM) | 1 µg/mL (≈ 1.58 µM) | > 125 µg/mL | 4 µg/mL (≈ 6.32 µM) | 
2 | CC(=O)O[C@H]1C[C@@]2(C)C(C[C@@H](O)C3[C@@]4(C)CC[C@@H](OC(C)=O)[C@@H](C)C4CC[C@@]32C)[C@@H]1[C@H](CCCC(C)C)C(=O)NCCCNCCCCNCCCN (stereo partly drawn) [Compound 173, 21-N-[3′-({4′-[(3′-aminopropyl)amino]butyl}amino)propyl]-3-OAc-17R,20S,24,25-tetrahydrofusid-21-amide] | 4 µg/mL (≈ 5.35 µM) | 4 µg/mL (≈ 5.35 µM) | 4 µg/mL (≈ 5.35 µM) | 4 µg/mL (≈ 5.35 µM) | 125 µg/mL (≈ 167 µM) | 4 µg/mL (≈ 5.35 µM) | 4 µg/mL (≈ 5.35 µM) | 1 µg/mL (≈ 1.34 µM) | 4 µg/mL (≈ 5.35 µM) | 4 µg/mL (≈ 5.35 µM) | 4 µg/mL (≈ 5.35 µM) | 1 µg/mL (≈ 1.34 µM) | 4 µg/mL (≈ 5.35 µM) | 125 µg/mL (≈ 167 µM) |  | 
3 | CC(=O)O[C@H]1C[C@@]2(C)[C@@H](C[C@@H](O)[C@H]3[C@@]4(C)CC[C@@H](O)[C@@H](C)[C@@H]4CC[C@@]32C)/C1=C(\CCC=C(C)C)C(=O)O [FA, fusidic acid] | > 64 µg/mL | 16 µg/mL (≈ 31 µM) | 0.02 µg/mL (≈ 0.0387 µM) | 0.1 µg/mL (≈ 0.194 µM) | > 64 µg/mL | > 64 µg/mL | 16 µg/mL (≈ 31 µM) | 0.02 µg/mL (≈ 0.0387 µM) | 0.02 µg/mL (≈ 0.0387 µM) | 16 µg/mL (≈ 31 µM) | > 64 µg/mL |  | 0.2 µg/mL (≈ 0.387 µM) | > 64 µg/mL |  | 0.02 µg/mL (≈ 0.0387 µM)
